27 molecules from patent US8163779B2, “Glucokinase activators” (Takeda San Diego, Inc., priority 2006, dated 2012) can be followed below.

The structures appear in SMILES notation.

The assay concerns the target T1, glucokinase (GK) (Homo sapiens, UniProt P35557).
T1 construct: I.D. No. 1 corresponds to residues 12-465 of glucokinase; made in house; host or cells: E. coli DH10b-T1r
T1 sequence (P35557 with tags, fused parts or gaps isoform P35557-2): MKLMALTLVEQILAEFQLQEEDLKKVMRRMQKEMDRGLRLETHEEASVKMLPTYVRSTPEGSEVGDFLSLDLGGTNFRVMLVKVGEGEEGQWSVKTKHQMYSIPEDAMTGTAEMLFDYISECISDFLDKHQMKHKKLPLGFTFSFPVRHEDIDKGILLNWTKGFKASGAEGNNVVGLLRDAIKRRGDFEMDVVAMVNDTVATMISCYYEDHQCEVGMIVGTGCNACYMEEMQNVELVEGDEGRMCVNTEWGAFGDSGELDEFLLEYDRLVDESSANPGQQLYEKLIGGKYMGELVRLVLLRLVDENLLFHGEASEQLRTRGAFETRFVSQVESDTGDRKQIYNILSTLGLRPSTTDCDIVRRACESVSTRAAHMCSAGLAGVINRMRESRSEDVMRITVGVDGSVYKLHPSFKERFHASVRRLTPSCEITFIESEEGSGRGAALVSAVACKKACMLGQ
Put plainly: enzymatic glucokinase activity assay (ATP consumption, KinaseGlo luminescence). The format is biochemical. Particulars: recombinant GK residues 12-465; 5 μM ATP, 5 mM Glucose; Kact = concentration that displays 50% of the maximal increase in GK activity; read-out: pKact. Summed up: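 Activation was scored as ATP consumption, quantified by KinaseGlo luciferase luminescence after a 60 min room-temperature reaction. Reactions contained E. coli-expressed, purified GK, 5 μM ATP, 5 mM glucose, 10 mM MgCl2, 0.01% Brij35 and 2% DMSO at pH 7.2; pKact was fitted non-linearly.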

On to `O=C(Nc1ncc(Cc2ccc(F)cc2)s1)C(CC1CCOCC1)n1ccc(S(=O)(=O)C2CC2)cc1=O` (stereo not drawn) [Example 138, 2-(4-(cyclopropylsulfonyl)-2-oxopyridin-1(2H)-yl)-N-(5-(4-fluorobenzyl)thiazol-2-yl)-3-(tetrahydro-2H-pyran-4-yl)propanamide], for which the EC50 lay in the range of 1.58 to 15.8 µM.

Consider `O=C(Nc1nc2ccc(O)cc2s1)C(CC1CCOCC1)n1ccc(S(=O)(=O)C2CC2)cc1=O` (stereo not drawn) [Example 84, 2-(4-(cyclopropylsulfonyl)-2-oxopyridin-1(2H)-yl)-N-(6-hydroxybenzo[d]thiazol-2-yl)-3-(tetrahydro-2H-pyran-4-yl)propanamide], for which the EC50 is above 15.8 µM.

In the case of `Cc1cc(S(=O)(=O)C2CCCC2)cc(=O)n1C(CC(C)C)C(=O)Nc1nccs1` (stereo not drawn) [Example 11, 2-(4-(cyclopentylsulfonyl)-6-methyl-2-oxopyridin-1(2H)-yl)-4-methyl-N-(thiazol-2-yl)pentanamide], the EC50 was below 1.58 µM. The figure for `Cc1cc(S(=O)(=O)C2CCCC2)cc(=O)n1C(Cc1ccc(O)cc1)C(=O)Nc1nccs1` (stereo not drawn) [Example 28, 2-(4-(cyclopentylsulfonyl)-6-methyl-2-oxopyridin-1(2H)-yl)-3-(4-hydroxyphenyl)-N-(thiazol-2-yl)propanamide] is above 15.8 µM. Then `Cc1cc(S(=O)(=O)C2CCCC2)cc(=O)n1C(CC1CCCCC1)C(=O)Nc1ncc(CN2CCOCC2)s1` (stereo not drawn) [Example 89, 3-cyclohexyl-2-(4-(cyclopentylsulfonyl)-6-methyl-2-oxopyridin-1(2H)-yl)-N-(5-(morpholinomethyl)thiazol-2-yl)propanamide], with below 1.58 µM; and `COc1ccc2nc(NC(=O)[C@@H](CC3CCOCC3)n3ccc(S(=O)(=O)C4CC4)cc3=O)sc2n1` [Example 48, (R)-2-(4-(cyclopropylsulfonyl)-2-oxopyridin-1(2H)-yl)-N-(5-methoxythiazolo[5,4-b]pyridin-2-yl)-3-(tetrahydro-2H-pyran-4-yl)propanamide], with 1.58 to 15.8 µM; and `O=C(Nc1ncc(Cl)s1)C(CC1CCOCC1)n1cc(Cl)c(S(=O)(=O)C2CC2)cc1=O` (stereo not drawn) [Example 179, 2-(5-chloro-4-(cyclopropylsulfonyl)-2-oxopyridin-1(2H)-yl)-N-(5-chlorothiazol-2-yl)-3-(tetrahydro-2H-pyran-4-yl)propanamide], with 1.58 to 15.8 µM.

In the case of `O=C(Nc1ncc(Cl)s1)[C@H](CC1CCOCC1)n1cc(Cl)c(S(=O)(=O)C2CC2)cc1=O` [Example 196, (S)-2-(5-chloro-4-(cyclopropylsulfonyl)-2-oxopyridin-1(2H)-yl)-N-(5-chlorothiazol-2-yl)-3-(tetrahydro-2H-pyran-4-yl)propanamide], the EC50 lay within 1.58 to 15.8 µM.

For the molecule `Cn1ccc(NC(=O)[C@@H](CC2CCOCC2)n2ccc(S(=O)(=O)C3CC3)cc2=O)n1` [Example 73, (R)-2-(4-(cyclopropylsulfonyl)-2-oxopyridin-1(2H)-yl)-N-(1-methyl-1H-pyrazol-3-yl)-3-(tetrahydro-2H-pyran-4-yl)propanamide], the EC50 is above 15.8 µM. Then `Cc1cc(S(=O)(=O)C2CCCC2)cc(=O)n1[C@H](CC1CCOCC1)C(=O)Nc1ccc(Cl)cn1` [Example 167, (R)-N-(5-chloropyridin-2-yl)-2-(4-(cyclopentylsulfonyl)-6-methyl-2-oxopyridin-1(2H)-yl)-3-(tetrahydro-2H-pyran-4-yl)propanamide], with above 15.8 µM; and `Cc1cc(N2CCOCC2)cc(=O)n1[C@H](CC1CCCCC1)C(=O)Nc1nccs1` (stereo in doubt) [Example 79, 3-cyclohexyl-2-(6-methyl-4-morpholino-2-oxopyridin-1(2H)-yl)-N-(thiazol-2-yl)propanamide], with above 15.8 µM. Consider `Cc1cc(S(=O)(=O)C2CCOCC2)cc(=O)n1[C@H](CC1CCCC1)C(=O)Nc1ncc(F)s1` [Example 194, (R)-3-cyclopentyl-N-(5-fluorothiazol-2-yl)-2-(6-methyl-2-oxo-4-(tetrahydro-2H-pyran-4-ylsulfonyl)pyridin-1(2H)-yl)propanamide], for which the EC50 is above 15.8 µM. Then `COc1ccc2nc(NC(=O)[C@H](CC3CCCCC3)n3ccc(S(=O)(=O)C4CC4)cc3=O)sc2n1` [Example 76, (S)-3-cyclohexyl-2-(4-(cyclopropylsulfonyl)-2-oxopyridin-1(2H)-yl)-N-(5-methoxythiazolo[5,4-b]pyridin-2-yl)propanamide], with below 1.58 µM. Then `Cc1cc(S(=O)(=O)C2CC2)cc(=O)n1[C@@H](CC1CCOCC1)C(=O)Nc1ncc(Cl)s1` [Example 172, (S)-N-(5-chlorothiazol-2-yl)-2-(4-(cyclopropylsulfonyl)-6-methyl-2-oxopyridin-1(2H)-yl)-3-(tetrahydro-2H-pyran-4-yl)propanamide], with below 1.58 µM; and `Cc1cc(S(=O)(=O)C2CC2)c(N)c(=O)n1[C@H](CC1CCCC1)C(=O)Nc1ncc(F)s1` [Example 154, (R)-2-(3-amino-4-(cyclopropylsulfonyl)-6-methyl-2-oxopyridin-1(2H)-yl)-3-cyclopentyl-N-(5-fluorothiazol-2-yl)propanamide], with 1.58 to 15.8 µM; and `Cc1cc(S(=O)(=O)C2CCOCC2)cc(=O)n1C(CC1CCCC1)C(=O)Nc1ncc(Cl)s1` (stereo not drawn) [Example 174, N-(5-chlorothiazol-2-yl)-3-cyclopentyl-2-(6-methyl-2-oxo-4-(tetrahydro-2H-pyran-4-ylsulfonyl)pyridin-1(2H)-yl)propanamide], with 1.58 to 15.8 µM.

On to `COc1ccc(CC(C(=O)Nc2nccs2)n2c(C)cc(S(=O)(=O)C3CCCC3)cc2=O)cc1` (stereo not drawn) [Example 27, 2-(4-(cyclopentylsulfonyl)-6-methyl-2-oxopyridin-1(2H)-yl)-3-(4-methoxyphenyl)-N-(thiazol-2-yl)propanamide], for which the EC50 is above 15.8 µM.

Regarding `Cc1cc(C)cc(CC(C(=O)Nc2ncc(Cl)s2)n2ccc(S(C)(=O)=O)cc2=O)c1` (stereo not drawn) [Example 24, N-(5-chlorothiazol-2-yl)-3-(3,5-dimethylphenyl)-2-(4-(methylsulfonyl)-2-oxopyridin-1(2H)-yl)propanamide], the EC50 is above 15.8 µM. Then `Cc1cnc(NC(=O)C(CC2CCOCC2)n2ccc(OCc3ccccc3)cc2=O)s1` (stereo not drawn) [Example 55, 2-(4-(benzyloxy)-2-oxopyridin-1(2H)-yl)-N-(5-methylthiazol-2-yl)-3-(tetrahydro-2H-pyran-4-yl)propanamide], with 1.58 to 15.8 µM. Consider `Cc1occc1S(=O)(=O)c1cc(C)n(C(CC2CCCCC2)C(=O)Nc2ncc(Cl)s2)c(=O)c1` (stereo not drawn) [Example 54, N-(5-chlorothiazol-2-yl)-3-cyclohexyl-2-(6-methyl-4-(2-methylfuran-3-ylsulfonyl)-2-oxopyridin-1(2H)-yl)propanamide], for which the EC50 was below 1.58 µM. The figure for `Cc1ccc(CC(C(=O)Nc2nccs2)n2c(C)cc(S(=O)(=O)C3CCCC3)cc2=O)cc1` (stereo not drawn) [Example 10, 2-(4-(cyclopentylsulfonyl)-6-methyl-2-oxopyridin-1(2H)-yl)-N-(thiazol-2-yl)-3-p-tolylpropanamide] is above 15.8 µM. The figure for `Cc1cc(S(=O)(=O)C2CC2)cc(=O)n1[C@@H](CC1CCCC1)C(=O)Nc1ccc(C(N)=O)cn1` [Example 180, (S)-6-(3-cyclopentyl-2-(4-(cyclopropylsulfonyl)-6-methyl-2-oxopyridin-1(2H)-yl)propanamido)nicotinamide] is 1.58 to 15.8 µM. The figure for `CNS(=O)(=O)c1ccc(-c2cc(C)n([C@@H](CC3CCCCC3)C(=O)Nc3nccs3)c(=O)c2)cc1` [Example 115, (S)-3-cyclohexyl-2-(6-methyl-4-(4-(N-methylsulfamoyl)phenyl)-2-oxopyridin-1(2H)-yl)-N-(thiazol-2-yl)propanamide] is above 15.8 µM.

On to `COc1ccc2nc(NC(=O)[C@H](CC3CCOCC3)n3ccc(S(=O)(=O)CCCO)cc3=O)sc2n1` [Example 72, (S)-2-(4-(3-hydroxypropylsulfonyl)-2-oxopyridin-1(2H)-yl)-N-(5-methoxythiazolo[5,4-b]pyridin-2-yl)-3-(tetrahydro-2H-pyran-4-yl)propanamide], for which the EC50 lay within 1.58 to 15.8 µM.

Turning to `Cc1cc(S(=O)(=O)C2CCS(=O)(=O)CC2)cc(=O)n1C(CC1CCCCC1)C(=O)Nc1ncc(Cl)s1` (stereo not drawn) [Example 160, N-(5-chlorothiazol-2-yl)-2-(4-(1,1-dioxotetrahydrothiopyran-4-ylsulfonyl)-6-methyl-2-oxopyndin-1(2H)-yl)-3-cyclohexylpropanamide], the EC50 fell in the range of 1.58 to 15.8 µM. Then `Cc1cc(S(=O)(=O)C2CC2)cc(=O)n1[C@H](CC1CCCC1)C(=O)Nc1cnccn1` [Example 170, (R)-3-cyclopentyl-2-(4-(cyclopropylsulfonyl)-6-methyl-2-oxopyridin-1(2H)-yl)-N-(pyrazin-2-yl)propanamide], with above 15.8 µM; and `O=C(Nc1ncc(F)s1)[C@@H](CC1CCOCC1)n1cc(Cl)c(S(=O)(=O)C2CC2)cc1=O` [Example 197, (R)-2-(5-chloro-4-(cyclopropylsulfonyl)-2-oxopyridin-1(2H)-yl)-N-(5-fluorothiazol-2-yl)-3-(tetrahydro-2H-pyran-4-yl)propanamide], with above 15.8 µM.
